In ChEMBL document CHEMBL1132315, “Pharmacophore models of group I and group II metabotropic glutamate receptor agonists. Analysis of conformational, steric, and topological parameters affecting potency and selectivity” (J Med Chem, 1999):

Legend:
[1] = The effective concentration for 50% glutamate response was measured on Group I Metabotropic glutamate receptor; type: functional
[2] = The effective concentration for 50% glutamate response was measured on Group II Metabotropic glutamate receptor; type: functional
[3] = (§1) Percentage of glutamate maximal response was measured on Group II Metabotropic glutamate receptor; type: functional
[4] = Percent glutamate response was measured on group 1 Metabotropic Glutamate Receptors
[5] = as §1; type: functional; remark: listed apart in the source

Compound	EC50 [1] [µM]	EC50 [2] [µM]	EC50 [3] [µM]	Response [4] [%]	Response [5] [%]
N[C@@]1(C(=O)O)CC[C@H](C(=O)O)C1	> 300	13	–	–	–
NC(C(=O)O)C1[C@@H](C(=O)O)[C@@H]1C(=O)O (stereo not given in full)	–	–	0.1	–	–
N[C@@]1(C(=O)O)CC[C@@H](C(=O)O)C1	9.3	18	–	–	–
N[C@]1(C(=O)O)CC[C@H](C(=O)O)C1	127	110	–	–	–
NC1(C(=O)O)C2CCC1C(C(=O)O)C2 (stereo not given)	–	–	30	10	–
N[C@H](C(=O)O)c1cc(O)cc(O)c1	6.6	–	–	–	–
N[C@@]1(C(=O)O)CN[C@@H](C(=O)O)C1	> 1000	3.5	–	–	–
O=C(O)[C@H]1C[C@H](C(=O)O)N1	189	> 100	–	–	–
N[C@H](C(=O)O)c1cccc(O)c1	–	–	–	–	< 15
N[C@@H](C(=O)O)[C@H]1CC1C(=O)O (single isomer, unassigned)	5	0.3	–	–	–
N[C@@H](C(=O)O)[C@@H]1CC1C(=O)O (single isomer, unassigned)	20	–	–	–	–
NC1(C(=O)O)CC2CCC1C2C(=O)O (stereo in doubt; 8)	–	–	–	–	50
NC1(C(=O)O)CC2CCC1C2C(=O)O (stereo in doubt; 9)	–	–	–	12	50
NC1(C(=O)O)CC2CC1C2C(=O)O (stereo in doubt; 12)	1.6	0.33	–	–	–
NC1(C(=O)O)CC2CC1C2C(=O)O (stereo in doubt; 21)	121	54	–	–	–
NC1(C(=O)O)CC2CC1C2C(=O)O (stereo in doubt; 22)	232	38	–	–	–
N[C@@]1(C(=O)O)CC[C@H]2[C@H](C(=O)O)[C@H]21 [EGLUMETAD]	> 1000	0.032	–	–	–
N[C@@H](CCC(=O)O)C(=O)O [GLUTAMIC ACID]	4.9	0.29	–	–	–
N[C@H](C(=O)O)c1cc(O)no1 [IBOTENIC ACID]	6	50	–	–	–
N[C@@H](Cn1oc(=O)[nH]c1=O)C(=O)O [QUISQUALATE]	0.9	100	–	–	–
